Measurements: patent US7875282B2 (Cordis Corporation, priority 2004, dated 2011)
Values belong to the molecule of their own block, whether it stands above or below them.

How the values were obtained:
[1] = test system: human coronary artery smooth muscle cells; experiment: Anti-proliferative activity in synchronized cultured cells stimulated with two percent fetal bovine serum; format: cell-based; conditions: for effect of addition on the anti-proliferative activity of rapamycin: added to rapamycin
Excerpt: The multiple curves represent various concentrations of topotecan ranging from zero to three hundred nanomolar concentrations.
The multiple curves represent various concentrations of etoposide ranging from zero to eight hundred nanomolar concentrations.
The multiple curves represent various concentrations of Panzem® ranging from zero to 100 micromolar concentrations.

[2] = test system: human smooth muscle cells; experiment: PDGF-stimulated proliferation of human smooth muscle cells, cell count; format: cell-based; conditions: from IC50 values
Description: To assess the ability of cladribine to prevent cell proliferation, human smooth muscle or endothelial cells (Clonetics, Walkersville, Md.) were seeded at a density of 2000 cells/cm^2 (approximately 3600 cells/well) into each well of 12-well plates and cultured with 1.5 ml of growth medium containing five percent fetal calf serum (FCS). After twenty-four hours, the growth medium was changed and fresh medium containing 10 ng/ml platelet-derived growth factor AB (PDGF AB; LIFE Technologies), as well as various concentrations of cladribine (0.001-10,000 nM) were added with triplicate wells. Medium was replaced with fresh cladribine-containing medium after three days. On day six, cells were detached by trypsinization to yield a cell suspension, lightly centrifuged to pellet and then counted manually using a Neubauer hemocytometer system. Cell viability was assessed by trypan blue exclusion.

[3] = test system: human coronary artery smooth muscle cells; experiment: Anti-proliferative activity in non-synchronized cultured cells stimulated with two percent fetal bovine serum; format: cell-based; conditions: for effect of addition on the anti-proliferative activity of rapamycin: non-synchronized cells, added to rapamycin
Excerpt: The multiple curves represent various concentrations of mycophenolic acid ranging from zero to one thousand nanomolar concentrations.
FIG. 58 illustrates, in graphical format, the anti-proliferative activity of cladribine in non-synchronized cultured human coronary artery smooth muscle cells stimulated with two percent fetal bovine serum.
The multiple curves represent various concentrations of cladribine ranging from zero to nine hundred nanomolar concentrations.

[4] = In vivo release kinetics from rapamycin, cladribine and polymer coating, porcine pharmacokinetics studies; design: species or system Yorkshire pigs; conditions: Bx Velocity stents, BMA topcoat
Excerpt: (§1) The basecoat is applied to Bx Velocity® stents and implanted into Yorkshire pigs.
as §1

[5] = In vivo release kinetics from rapamycin, mycophenolic acid and polymer coating, porcine pharmacokinetics studies; conditions: one hundred eighty micro grams each drug
tumor cell lines = conditions: Woo et al., J. Med Chem 2002; cited from earlier work
[6] = test system: human coronary artery smooth muscle cell; experiment: In vitro cell culture study of coronary artery smooth muscle cell proliferation; format: cell-based
Excerpt: FIG. 51 is a graph of the inhibition of coronary artery smooth muscle cells by trichostatin A in a cell culture study.

Structure (SMILES): COc1cc2c(cc1O)CC[C@@H]1[C@@H]2CC[C@]2(C)[C@@H](O)CC[C@@H]12 [Panzem®, 2-methoxyestradiol]
- effect of addition on the anti-proliferative activity of rapamycin [1]: increases the percent of inhibition of rapamycin alone
- anti-proliferative activity ([1]; agent alone): extremely effective inhibitor of human coronary artery smooth muscle cell proliferation

- elution from EVA/BMA basecoat compared with rapamycin [4]: elutes more rapidly than rapamycin
Structure (SMILES): Nc1nc(Cl)nc2c1ncn2[C@H]1C[C@H](O)[C@@H](CO)O1 [cladribine, 2-chlorodeoxyadenosine]
- potency as inhibitor of smooth muscle cells relative to endothelial cells [2]: approximately twice
- effect of addition on the anti-proliferative activity of rapamycin [3]: increases the percent inhibition of rapamycin alone
- inhibition of human coronary artery smooth muscle cell proliferation ([3]; non-synchronized, two percent fetal bovine serum): completely inhibits

Structure (SMILES): COc1cc([C@@H]2c3cc4c(cc3[C@@H](O[C@@H]3O[C@@H]5CO[C@@H](C)O[C@H]5[C@H](O)[C@H]3O)[C@H]3COC(=O)[C@H]23)OCO4)cc(OC)c1O [etoposide]
- effect of addition on the anti-proliferative activity of rapamycin [1]: increases the percent inhibition of rapamycin alone

Structure (SMILES): COc1c(C)c2c(c(O)c1C/C=C(\C)CCC(=O)O)C(=O)OC2 [mycophenolic acid]
- effect of addition on the anti-proliferative activity of rapamycin [3]: potentiates the anti-proliferative activity of rapamycin
- elution from EVA/BMA basecoat compared with rapamycin [5]: elutes more completely over a shorter duration than the rapamycin

Structure (SMILES): CC[C@@]1(O)C(=O)OCc2c1cc1n(c2=O)Cc2cc3c(CN(C)C)c(O)ccc3nc2-1 [topotecan]
- effect of addition on the anti-proliferative activity of rapamycin [1]: increases the percent inhibition of rapamycin alone

Structure (SMILES): CC(/C=C/C(=O)NO)=C\[C@@H](C)C(=O)c1ccc(N(C)C)cc1 [trichostatin A]
- anti-proliferative IC50's (tumor cell lines): low nM range
- inhibition of human coronary artery smooth muscle cell proliferation [6]: completely inhibit
- IC50 ([6]; read-out: anti-proliferative IC50): ~6 nM
